From US20110306639A1, “HYDROCARBYLIDENE NITROHYDROZINECARBOXIMIDAMIDES AND A METHOD FOR MAKING THE SAME, AS WELL AS THEIR USES AS AN INSECTICIDE” (priority 2008, published 2011)
Like-named read-outs stand apart in the source and are kept apart here.

What was measured:
[1] = system: myzus persicae; details: in vivo
[2] = system: Helicoverpa armigera
[3] = system: asparagus caterpillar; details: in vivo

Compound | mortality(%) myzus persicae (600 μg/mL) [1] [%] | mortality(%) Helicoverpa armigera (500 μg/mL) ([2]; 500 μg/mL, 48 hours) [%] | mortality(%) asparagus caterpillar (500 μg/mL) [3] [%] | mortality(%) Helicoverpa armigera (500 μg/mL) ([2]; in vivo) [%]
CC=CC=NNC(=N[N+](=O)[O-])NCC [Compound 32] | 48.0 | 0 | 0 | 
C=CC=NNC(=N[N+](=O)[O-])NCc1ccccc1 [Compound 44] | 45.8 | 30 | 0 | 
CCCNC(=N[N+](=O)[O-])NN=Cc1ccc(N(C)C)cc1 [Compound 70] |  |  | 80 | 40
C=CCNC(=N[N+](=O)[O-])NN=CCCCC [Compound 53] | 81.0 | 40 | 80 | 
CCCC=NNC(=N[N+](=O)[O-])NCCC [Compound 25] |  | 50 | 10 | 
O=[N+]([O-])N=C(NCc1ccc(Cl)nc1)NN=Cc1ccc(Cl)cc1 [Compound 108] |  |  | 50 | 50
CCCCC=NNC(=N[N+](=O)[O-])NCc1ccccc1 [Compound 55] | 49.2 | 10 | 30 | 
C=CCNC(=N[N+](=O)[O-])NN=Cc1ccc(N(C)C)cc1 [Compound 72] | 23.6 |  | 50 | 50
CC(C)C=NNC(=N[N+](=O)[O-])NCc1ccccc1 [Compound 7] | 18.4 | 40 | 50 | 
C#CCNC(=N[N+](=O)[O-])NN=Cc1ccccc1Cl [Compound 94] | 31.2 |  | 60 | 50
O=[N+]([O-])N=C(NCc1ccccc1)NN=Cc1ccccc1Cl [Compound 92] | 45.8 |  | 70 | 50
CCCCNC(=N[N+](=O)[O-])NN=Cc1ccccc1OC [Compound 74] | 40.4 | 0 | 30 | 
COc1ccccc1C=NNC(=N[N+](=O)[O-])NCc1ccccc1 [Compound 75] | 92.8 | 30 | 90 | 
CC=CC=NNC(=N[N+](=O)[O-])NCc1ccc(Cl)nc1 [Compound 38] | 1.2 |  | 0 | 30
CNC(=N[N+](=O)[O-])NN=CC=C(C)CCC=C(C)C [Compound 16] | 31.4 |  | 70 | 30
CCCCC=NNC(=N[N+](=O)[O-])NCCCC [Compound 52] | 81.0 | 20 | 60 | 
CCC=NNC(=N[N+](=O)[O-])NCCCC [Compound 11] | 1.5 | 50 | 50 | 
CCCNC(=N[N+](=O)[O-])NN=Cc1ccc(OCC)c(OC)c1 [Compound 96] | 73.4 |  | 50 | 20
CCCNC(=N[N+](=O)[O-])NN=Cc1ccc(F)cc1 [Compound 100] | 20.3 |  | 90 | 20
C=CCNC(=N[N+](=O)[O-])NN=CC=CC [Compound 35] | 56.7 | 20 | 60 | 
CCNC(=N[N+](=O)[O-])NN=CC(C)C [Compound 2] | 53.6 | 60 | 50 | 
CCCC=NNC(=N[N+](=O)[O-])NCc1ccc(Cl)nc1 [Compound 30] | 80.7 |  | 40 | 40

Compound | mortality(%) myzus persicae (600 μg/mL) [1] [%] | mortality(%) Helicoverpa armigera (500 μg/mL) ([2]; 500 μg/mL, 48 hours) [%] | mortality(%) asparagus caterpillar (500 μg/mL) [3] [%] | mortality(%) Helicoverpa armigera (500 μg/mL) ([2]; in vivo) [%]
C=CCNC(=N[N+](=O)[O-])NN=Cc1ccc(OCC)c(OC)c1 [Compound 99] | 45.8 |  | 30 | 50
C#CCNC(=N[N+](=O)[O-])NN=CC(C)C [Compound 6] | 37.9 | 100 | 60 | 
C#CCNC(=N[N+](=O)[O-])NN=CCC [Compound 13] | 5.0 | 50 | 0 | 
C=CCNC(=N[N+](=O)[O-])NN=CC=C(C)CCC=C(C)C [Compound 20] | 5.2 |  | 50 | 0
C#CCNC(=N[N+](=O)[O-])NN=CCCCCCC [Compound 48] | 13.0 | 30 | 0 | 
C=CCNC(=N[N+](=O)[O-])NN=CCCCCCC [Compound 47] | 23.7 | 0 | 0 | 
COc1ccccc1C=NNC(=N[N+](=O)[O-])NCc1ccc(Cl)nc1 [Compound 109] |  |  | 90 | 40
C=CCNC(=N[N+](=O)[O-])NN=CC(C)C [Compound 5] | 27.8 | 90 | 30 | 
CCCC=NNC(=N[N+](=O)[O-])NCc1ccccc1 [Compound 29] |  | 60 | 50 | 
C#CCNC(=N[N+](=O)[O-])NN=CC=C [Compound 43] |  | 40 | 20 | 
CCCCCCC=NNC(=N[N+](=O)[O-])NCc1ccccc1 [Compound 49] | 28.6 | 50 | 0 | 
CCOc1ccc(C=NNC(=N[N+](=O)[O-])NC)cc1OC [Compound 95] | 58.0 |  | 80 | 40
C#CCNC(=N[N+](=O)[O-])NN=CC=C(C)CCC=C(C)C [Compound 21] | 12.8 |  | 30 | 20
CC(C)=CCCC(C)=CC=NNC(=N[N+](=O)[O-])NCc1ccc(Cl)nc1 [Compound 23] | 19.8 |  | 40 | 30
CCCCNC(=N[N+](=O)[O-])NN=CC(C)C [Compound 4] | 31.6 | 10 | 20 | 
C=CCNC(=N[N+](=O)[O-])NN=CCC [Compound 12] |  | 30 | 40 | 
CC=CC=NNC(=N[N+](=O)[O-])NCCCC [Compound 34] |  | 40 | 60 | 
C=CC=NNC(=N[N+](=O)[O-])NCC [Compound 39] |  | 20 | 40 | 
CCCNC(=N[N+](=O)[O-])NN=CC=C(C)CCC=C(C)C [Compound 18] |  |  | 60 | 50
CN(C)c1ccc(C=NNC(=N[N+](=O)[O-])NCc2ccccc2)cc1 [Compound 71] |  |  | 90 | 30
CC=CC=NNC(=N[N+](=O)[O-])NCc1ccccc1 [Compound 37] |  | 70 | 20 | 
CCCCCCC=NNC(=N[N+](=O)[O-])NCCCC [Compound 46] |  | 20 | 30 | 
